Laboratory results published in patent US20230173295A1, “Systems, Devices, and Methods for Gamma Entrainment using Sensory Stimuli to Alleviate Cognitive Deficits and/or Neuroinflammation Induced by Chemotherapy Agents” (Massachusetts Institute of Technology, priority 2020, published 2023).
“Also recorded” adds a separate entry of the source.

Tests used:
C57/BL6J male mouse [1] = assay: MTX induced chemo brain model: survival rate and body weight; details: 100 mg/kg MTX i.p.
Experimental: P21 C57/BL6J male mouse received i.p. injection of either 100 mg/kg MTX or volume-matched PBS on P21, P28, P35 (i.e., 21 days after birth/21 days old, 28 days old, 35 days old) (FIG. 1A). Stim (S) group received 1 hr of 40 Hz audio+visual sensory stimulation immediately after the first injection, and then received 1 hr stimulation every day after that day's injection until the day before they were sacrificed. No stim (NS) group stayed under a dim light for 1 hr immediately after the first injection, and then stayed under a dim light for 1 hr every day until the day before they were sacrificed. Every animal was single-caged in a caged covered with a black-plastic bag on every wall but one side for the duration of 1 hr stim/sham period and then group housed with their littermates.
Another chemotherapeutic agent, methotrexate (MTX)-induced chemo brain animals were tested.

C57/BL6J male mouse [2] = assay: MTX induced chemo brain model: puzzle box test; assay type: in vivo; details: MTX treatment
Experimental: Animals were placed in a testing arena containing a lighted (55 cm×28 cm) and a dark (15 cm×28 cm) compartment with a connecting tunnel (4 cm×4 cm×2.5 cm), facing the farthest wall from the dark compartment. 3 trials were performed for 3 days. 1 introductory period without any obstacles blocking the tunnel and 2 ‘easy task’ in which animals have to pass a corridor (4 cm×4 cm×12 cm). On day 2, 1 ‘easy task’ and 2 ‘intermediate task’ in which the corridor is blocked with sawdust and the animals have to dig through to reach the dark chamber were performed. On day 3, 1 ‘intermediate task’ and 2 ‘hard task’ where the tunnel was plugged with a tissue were performed. Time of the first entry to the dark chamber was recorded for every trials.
(§1) OFT, MWM behavior was tracked with a behavior tracking software (EthoVision XT, Nodulus). NOR and puzzle box behavior was scored by manual counting. Zeiss LSM 710 and Zeiss LSM 880 confocal microscope with Zen software was used to capture fluorescence images. A 3D image analysis software (IMARIS, Bitplane) was used to score Iba1 and GFAP positive voxels, and the area covered by MBP, ventricle size and cell number counting was scored with ImageJ software. Researcher was blinded for the experimental group during data analysis.

C57/BL6J male mouse [3] = assay: MTX induced chemo brain model: Morris water maze (MWM) test; assay type: in vivo
Experimental: A circular cylinder with 122 cm diameter was filled with tap water (22° C.-24° C.) and a white paint was added to make the water opaque. The area was divided into 4 equal quardrants and a 10 cm diameter platform was placed in the center of the target quardrant (TQ), the platform being 1 inch lower than the water level. On the first day of training, animals were placed on the platform for 30 seconds, and then retrieved from the water (priming). After 1 minute of priming, animals were placed into the chamber facing the chamber wall. Time to reach the platform was measured when the animal was sitting on the platform for >1s. For 5 consecutive days, animals performed two trials, spaced 1 min. After 5 days of training, the platform was removed from the chamber, and the animals were placed in the center of the chamber. For 1 min duration, time spent in TQ were measured Novel Object Recognition (NOR)
as §1

C57/BL6J male mouse [4] = assay: MTX induced chemo brain model: immunohistochemistry of brain slices; assay type: in vivo; details: MTX NS
Experimental: 30˜40 μm thick vibratome sectioned brain slices were washed in PBS, then incubated in a blocking solution (3% normal donkey serum (Millipore Sigma, S30-M) and 0.3% Triton X-100 (Sigma-Aldrich, T8787-100ML) in PBS) for 2 hrs. Then, slices were treated with a blocking solution containing α-Iba1 (1:500, Abcam, ab178846), α-GFAP (1:1000, Novus Biologicals, NBP1-05198), α-MBP (1:500, Millipore, AB9348), α-yH2AX (1:500, EMD Millipore, 05-636), α-Iba1 (1:500, SYSY, 234004), α-Olig2 (1:200, Abcam, ab109186), α-Pdgfra (1:100, Abcam, ab90967) and α-Dcx (1:500, Cell signaling technology, 4604S) in a 4° C.-10° C. controlled cold room for 2 overnight. […]
as §1, with “Researcher was blinded for the experimental group during data analysis.” left out

C57/BL6J male mouse [5] = assay: MTX induced chemo brain model: open field test (OFT); assay type: in vivo; details: MTX vs PBS
Experimental: Animals were placed in the center of 45×45 cm×40 cm (W×L×H) white acrylic box and their movement were tracked with a behavior tracking software (EthoVision XT, nodulus) for 10 min. 22.5 cm×22.5 cm area in the center of the box was marked as ‘center area’.
as §1

C57/BL6J male mouse [6] = assay: MTX induced chemo brain model: novel object recognition (NOR); assay type: in vivo; details: MTX without GENUS
Experimental: Animals were habituated in an OFT box for 10 min, 3 consecutive days. On the 4th day, two identical wooden blocks (Premium wooden building blocks set, Cubbie Lee) were placed in the chamber, and animals were allowed to explore the objects for 5 min, then the animals were returned to their home cage for 5 min. In the test phase, one of the wooden block is switched to a novel wooden block with a different shape, and the time spent exploring the familiar and new object was measured for 10 min. Discrimination ratio was calculated as time spent to explore the new object divided by the sum of time spent to explore both old and new object.
as §1

CN(Cc1cnc2nc(N)nc(N)c2n1)c1ccc(C(=O)N[C@@H](CCC(=O)O)C(=O)O)cc1 [MTX, methotrexate]
survival rate (C57/BL6J male mouse [1]; 1 week after the first administration): ~60% | lethality (C57/BL6J male mouse [1]; within 1 week after the first MTX injection): 40% | puzzle box test performance (C57/BL6J male mouse [2]): cognitive impairment | MWM performance: swimming speed, spatial learning and memory (C57/BL6J male mouse [3]; PBS NS, MTX NS, PBS S, MTX S): comparable performance in swimming speed, spatial learning and memory | MWM learning curve (C57/BL6J male mouse [3]; mouse, in vivo): neither MTX nor GENUS altered learning curve | MWM swimming speed (C57/BL6J male mouse [3]; mouse, in vivo): neither MTX nor GENUS altered swimming speed | Iba1 signal in corpus callosum (C57/BL6J male mouse [4]): dramatically increased; also recorded: significantly higher | locomotion in OFT (C57/BL6J male mouse [5]): neither GENUS nor methotrexate (MTX) treatment affected locomotion | time spent in center area during OFT (C57/BL6J male mouse [5]): GENUS but not MTX significantly increased time spent in center area | NOR: time exploring novel and familiar object (C57/BL6J male mouse [6]): spent comparable time exploring noble and familiar object
